Assay [1] has as its target T1, hGAT1 (Homo sapiens, UniProt P30531).
T1 construct: expressed in transfected cells; host or cells: HEK293
Description: [3H]GABA uptake in hGAT1 stably expressing HEK293 cells. It is filed as cell-based. The following applies: 50 μM [3H]GABA. The method, then:
(§1) HEK293 cells stably expressing human GAT1 (hGAT1), GAT2 (hGAT2), GAT3 (hGAT3), or betaine/GABA transporter 1 (hBGT‐1) were plated onto 96‐well microtiter plates at a density of 4.0 × 10^4 cells/well in Dulbecco's Modified Eagle's Medium (DMEM, containing 10% fetal bovine serum, 100 units/mL penicillin, 100 μg/mL streptomycin, 1% non‐essential amino acid solution, and 25 mM HEPES) and incubated overnight at 37°C in a 5% CO2 atmosphere. After washing the cells with Hanks’ balanced salt solution (HBSS, containing 140 mg/L CaCl2, 100 mg/L MgCl2, 20 mM HEPES, and 10 mM NaOH), E2730 (0.0128–1000 μM) was added to the plate. Following the addition of 50 μM [^3H]GABA, cells were incubated for 5 minutes at 37°C in a 5% CO2 atmosphere and then washed with cold HBSS. Washed cells were incubated in a scintillator for 1 hour at room temperature, followed by radioactivity measurements using a liquid scintillation counter.

Assay [2] concerns the target T2, human brain synaptosomal membranes (Homo sapiens, UniProt P30531).
T2 construct: from tissue; host or cells: human cerebral cortex; synaptosomal membranes
Description: Saturation binding of [3H]E2730 in human brain synaptosomal membranes. The method, then: (§2) Synaptosomal membranes were prepared using the whole brain without cerebellum, brainstem, or olfactory bulb from Sprague Dawley rats (male, 7 weeks old) or human cerebral cortex based on Fuks et al.[10] and Hanada et al.[11] Synaptosomal membranes (0.4 mg protein/tube) were incubated with 9.8–5000 nM [^3H]E2730 for 120 minutes at 4°C. Non‐specific binding was defined as the residual binding observed in the presence of 1 mM unlabeled E2730. […] The filters were washed three times with ice‐cold 50 mM Tris–HCl buffer (pH 7.4) and incubated overnight in a scintillator (PerkinElmer), then the radioactivity was measured by a liquid scintillation counter (PerkinElmer).

The test system of assay [3] is amygdala kindling rats. Kind of assay: Amygdala kindling in rats. The assay is classed as in vivo, rat. The text has this: A tripolar electrode was implanted into the basolateral amygdala of Wistar‐Kyoto rats (male, 7 weeks old; Charles River Laboratories Japan, Japan). After at least 5 days of recovery, the amygdala was stimulated using an electronic stimulator at currents starting at 0.04 mA (50 Hz, 1 millisecond monophasic square‐wave pulses, 1‐second duration each) then increasing by 25% to a 30‐second duration until the after‐discharge threshold (ADT) was attained. ADT was defined as the current at which abnormal electroencephalogram and at least Racine's stage‐1 seizure behavior were observed. In the Racine's stage, seizure severity was classified as: 1, mouth and facial movements; 2, head nodding; 3, forelimb clonus; 4, rearing; 5, rearing and falling. From the next day onwards, electrical stimulation at the previously determined ADT was performed once daily in each rat. The rats showing ≥3 consecutive Racine stage‐5 seizures were deemed epileptic and used for drug evaluation. The pre‐ADT (i.e. baseline) seizure threshold of each rat was established prior to drug administration. After >1 hour following the determination of pre‐ADT seizure threshold, E2730 (5–50 mg/kg), levetiracetam (25 mg/kg), or vehicle was orally administered to the rats. One hour after the administration, the post‐ADT seizure threshold of each rat was ascertained, and the ratios of post‐ADT to pre‐ADT readings were analyzed.

Assay [4] concerns the target T3, rat brain synaptosomal membranes (Rattus norvegicus, UniProt P23978).
T3 construct: Synaptosomal membranes were prepared using the whole brain without cerebellum, brainstem, or olfactory bulb; from tissue; host or cells: rat whole brain without cerebellum, brainstem or olfactory bulb; synaptosomal membranes
Kind of assay: Saturation binding of [3H]E2730 in rat brain synaptosomal membranes. The following applies: [3H]E2730, Scatchard plot. The method, then:
as §2

Assay [5] addresses T1, hGAT1. Description: [3H]GABA uptake in hGAT1 cells under different GABA concentrations. It is filed as cell-based. The conditions noted are these: [3H]GABA 0.01-500 μM. On the procedure: hGAT1 stably expressing HEK293 cells were plated onto 96‐well microtiter plates at a density of 4.0 × 10^4 cells/well in DMEM and incubated overnight at 37°C in a 5% CO2 atmosphere. After washing the cells with assay buffer, E2730 (0.0128–1000 μM), tiagabine (Tokyo Chemical Industry; 0.000256–100 μM), or vehicle was added to the plate in the presence of 1% DMSO. After adding [^3H]GABA (0.01–500 μM), the plate was incubated for 5 minutes at 37°C in a 5% CO2 atmosphere. The radioactivity of the treated cells was assessed following the same method described above.

For assay [6], the target named is T4, hBGT-1 (Homo sapiens, UniProt P48065).
T4 construct: expressed in transfected cells; host or cells: HEK293
T4 sequence (P48065 1-614): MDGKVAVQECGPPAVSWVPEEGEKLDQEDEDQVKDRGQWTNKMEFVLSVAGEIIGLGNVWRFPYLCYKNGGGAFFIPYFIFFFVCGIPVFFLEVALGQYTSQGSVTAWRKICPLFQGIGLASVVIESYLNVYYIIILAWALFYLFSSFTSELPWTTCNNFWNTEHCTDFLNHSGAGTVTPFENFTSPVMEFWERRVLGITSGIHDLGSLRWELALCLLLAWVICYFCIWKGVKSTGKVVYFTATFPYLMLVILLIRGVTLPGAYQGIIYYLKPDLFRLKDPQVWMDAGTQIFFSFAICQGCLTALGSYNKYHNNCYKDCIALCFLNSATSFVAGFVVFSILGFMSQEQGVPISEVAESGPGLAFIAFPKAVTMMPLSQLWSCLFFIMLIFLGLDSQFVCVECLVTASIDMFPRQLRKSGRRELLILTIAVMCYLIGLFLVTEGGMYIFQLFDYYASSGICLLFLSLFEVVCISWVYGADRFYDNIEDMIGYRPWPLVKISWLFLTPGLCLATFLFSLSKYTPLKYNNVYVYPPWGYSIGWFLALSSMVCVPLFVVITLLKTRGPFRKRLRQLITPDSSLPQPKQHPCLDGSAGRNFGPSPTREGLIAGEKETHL
Description: [3H]GABA uptake in hBGT-1 stably expressing HEK293 cells. It is filed as cell-based. The conditions noted are these: hBGT-1 HEK293 cells, 50 μM [3H]GABA. On the procedure: as §1

In assay [7] the test system is brain synaptosomal membranes of GAT1-deficient mice. Description: [3H]E2730 binding in GAT1-deficient mouse brain. The conditions noted are these: 200 nM [3H]E2730. On the procedure: Synaptosomal membrane extract was prepared from homozygous γ‐aminobutyric acid (GABA) transporter 1 (GAT1) KO (Homo), heterozygous GAT1 KO (Hetero), and the littermate wild‐type (WT) mice (male, 10 weeks old) using the same approach as described above. Synaptosomal membrane extract (0.4 mg protein/tube) was incubated with 200 nM [^3H]E2730 for 120 minutes at 4°C. Non‐specific binding was defined as the residual binding observed in the presence of 1 mM unlabeled E2730. The radioactivity of the synaptosome‐bound radioligand was measured in the same way as described above.

T1 sequence (P30531 whole entry): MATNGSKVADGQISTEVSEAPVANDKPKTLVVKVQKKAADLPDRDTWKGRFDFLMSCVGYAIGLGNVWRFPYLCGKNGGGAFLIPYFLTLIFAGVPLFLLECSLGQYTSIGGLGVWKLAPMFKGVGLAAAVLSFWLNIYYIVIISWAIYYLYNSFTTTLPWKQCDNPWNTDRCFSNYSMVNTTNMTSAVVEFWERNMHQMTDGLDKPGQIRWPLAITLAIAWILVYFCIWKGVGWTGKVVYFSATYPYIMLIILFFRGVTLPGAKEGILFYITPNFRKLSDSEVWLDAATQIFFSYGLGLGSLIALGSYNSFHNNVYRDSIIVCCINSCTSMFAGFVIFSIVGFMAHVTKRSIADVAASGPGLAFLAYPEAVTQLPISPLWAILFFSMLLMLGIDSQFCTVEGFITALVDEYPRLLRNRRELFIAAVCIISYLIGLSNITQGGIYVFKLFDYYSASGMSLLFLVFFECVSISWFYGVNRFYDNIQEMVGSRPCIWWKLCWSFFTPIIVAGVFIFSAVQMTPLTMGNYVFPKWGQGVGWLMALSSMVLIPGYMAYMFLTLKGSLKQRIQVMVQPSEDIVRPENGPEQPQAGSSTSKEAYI
T2 sequence (P30531 whole entry): as above

As usually defined, the IC50 is the concentration needed to halve the response being measured. For orientation: Kd means the free concentration of one partner at which half of the binding sites on the other are occupied at equilibrium, for simple one-to-one binding. Turning to `NS(=O)(=O)N[C@H]1c2c(F)cc(F)cc2CC1(F)F` [E2730], the IC50 in assay [1] amounted to 1100 nM; in assay [6] it was 890000 nM. Also, the Bmax in assay [2] stood at 2503 fmol/mg protein; in assay [4], 3419 fmol/mg protein. The equilibrium dissociation constant (Kd) is 710 nM in assay [2] and 553 nM in assay [4]. Besides, the post-ADT/pre-ADT ratio turned out to be 129% in assay [3] (E2730 10 mg/kg oral, 1 hour after administration); 159% in assay [3] (E2730 20 mg/kg oral); 191% in assay [3] (E2730 50 mg/kg oral). For the same molecule, the “Minimum effective dose, amygdala kindling (rat)” value in assay [3] (oral, footnote a: minimum effective dose) was 10 mg/kg. In addition, in assay [5], the “dependence of GAT1 inhibition on ambient GABA concentration” value is given as “positively correlated with the ambient GABA concentration”. The “proportion of bound [3H]E2730 relative to WT mice” value in assay [7] (heterozygous GAT1 KO (Hetero) mice) is 54.0%; in assay [7] (homozygous GAT1 KO (Homo) mice), 8.0%.
